Results published in US11845748B2, “Bicyclic pyridine N-oxide derivatives useful as a factor XIa inhibitors” (Janssen Pharmaceutica NV, priority 2021, dated 2023).

What was measured:
human plasma kallikrein = human plasma kallikrein (Homo sapiens, UniProt P03952); experiment: Kallikrein inhibition assay utilizing a quenched AMC peptide substrate (FLINT); assay type: biochemical; details: kinetic reads at 5 min intervals over 30 min; 30 min preincubation; Z-Gly-Pro-Arg-AMC substrate; read-out: Kallikrein (KIN) IC50
Sequence of human plasma kallikrein (P03952 391-638 limits assumed): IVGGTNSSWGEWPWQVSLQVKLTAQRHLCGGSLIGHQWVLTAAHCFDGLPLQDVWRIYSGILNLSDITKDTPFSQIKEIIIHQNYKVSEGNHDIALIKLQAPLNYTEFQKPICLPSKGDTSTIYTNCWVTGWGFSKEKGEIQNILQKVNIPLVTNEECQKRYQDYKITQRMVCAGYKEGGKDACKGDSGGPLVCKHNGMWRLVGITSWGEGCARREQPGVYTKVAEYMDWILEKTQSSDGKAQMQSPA
Sequence of human plasma kallikrein (P03952 20-390 partner limits assumed): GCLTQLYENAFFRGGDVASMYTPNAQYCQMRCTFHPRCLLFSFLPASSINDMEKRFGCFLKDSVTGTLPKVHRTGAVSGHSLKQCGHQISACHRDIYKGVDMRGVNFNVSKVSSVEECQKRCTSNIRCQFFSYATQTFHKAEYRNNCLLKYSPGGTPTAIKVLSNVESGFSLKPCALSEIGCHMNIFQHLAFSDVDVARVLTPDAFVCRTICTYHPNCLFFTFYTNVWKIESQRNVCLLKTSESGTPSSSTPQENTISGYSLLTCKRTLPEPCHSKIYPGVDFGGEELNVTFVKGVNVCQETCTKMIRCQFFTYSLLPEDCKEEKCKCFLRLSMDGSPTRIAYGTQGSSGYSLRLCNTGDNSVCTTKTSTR
Method: Biological Example 2: Kallikrein Inhibition Assay Utilizing a Quenched AMC Peptide Substrate
A fluorescence intensity (FLINT) based assay was used to monitor inhibition of human plasma kallikrein. The peptide substrate, Z-Gly-Pro-Arg-AMC (Purchased from Bachem; Catalog #I-1150) was chosen based on its relatively low KM for kallikrein which enables running the assay at lower substrate concentrations to control background fluorescence. The kinetic parameters for this substrate were determined by fitting titration data to the Michaelis-Menten equation yielding a KM=40 μM, kcat=0.76 s^−1, and kcat/KM=18932 M^−1s^−1.
The Kallikrein FLINT assay was used with the following Z-Gly-Pro-Arg-AMC assay buffer: 50 mM Tris, pH 7.5, 100 mM NaCl, 5 mM CaCl2, 0.1 mg/mL BSA, 0.03% CHAPS. Assay buffer was prepared by mixing all ingredients fresh. 2× Z-Gly-Pro-Arg-AMC peptide substrate was prepared by diluting 10 mM stock into 1× assay buffer for a 100 μM working concentration (50 μM final concentration). The 2× kallikrein stock solution was prepared by diluting 14.76 μM stock in 1× assay buffer for a 4 nM working stock solution (2 nM final concentration).
Test compound(s) were run in an 11-point, 3-fold serial dilution with a final top compound concentration of 1 μM. Final DMSO in assay was 2%. Plasma kallikrein was pre-incubated for 30-minute with compound and then 50 μM substrate was added to initiate the reaction. The assay was run with kinetic (KIN) reads at 5 min intervals over 30 minutes. The time course was linear using 2 nM kallikrein greater than 30 minutes. More specifically, the assay was run as follows: • 100 nL of 0.1 mM test compound was dispensed into black 384-well non-binding Greiner BioOne 784900 plate for 1 μM final concentration; • 5 μL of 1× assay buffer was dispensed to columns 24 (low control) and 5 μL 2× human kallikrein enzyme solution was dispensed to columns 1-23 (column 23 high control); • the plate was centrifuged with a “cover” plate at 500 rpm for 1 min the plate was pre-incubated for 30 minutes at room temperature with plate covered; • 5 μL of 2× Z-Gly-Pro-Arg-AMC peptide substrate was dispensed into the entire plate, columns 1-24; • the plate was centrifuged with a “cover” plate at 500 rpm for 1 min; • the plate was read monitoring fluorescence intensity on the BMG PHERAStar at room temperature, using fluorescence module 340 nm/440 nm.
Percent inhibition (IC50) curves were generated per compound tested, and data was analyzed using a 4-parameter logistic fit using GeneData Screener. The relative fluorescence unit (RFU) values were normalized to percent inhibition using the following equation: % inhibition=((HC−LC)−(compound−LC)/(HC−LC))*100
where LC—low control=mean signal of […] 100% inhibition of human kallikrein enzyme; HC—high control=mean signal of […]+Z-Gly-Pro-Arg-AMC peptide substrate with DMSO only.
(§1) An 11-point dose response curve for the test compound(s) was generated using GENDATA to determine IC50 value based on the following equation: Y=Bottom+(Top−Bottom)/(1+10^((log IC50−X)*HillSlope))
(§2) where Y is the % inhibition in the presence of X inhibitor concentration, Top=high control=mean signal of human kallikrein enzyme+Z-Gly-Pro-Arg-AMC peptide substrate with DMSO only; Bottom=low control−mean signal of no human kallikrein enzyme or 100% inhibition of human kallikrein enzyme; HillSlope—Hill coefficient; and IC50=concentration of compound with 50% inhibition in relation to top/high control.
Representative compounds of formula (I) of the present invention were tested according to the procedure described in Biological Example 1 and Biological Example 2 above, with results as listed in Table 2, below. Results listed in the (ER) column were measured using endpoint reads where a single fluorescence reading was measured for each well at a 30 min timepoint. […]

Factor XIa = Factor XIa (Homo sapiens, UniProt P03951); experiment: Factor XIa inhibition assay utilizing a fluorophore-quencher pair peptide substrate (FLINT); assay type: biochemical; details: kinetic reads at 5 min intervals over 30 min; 30 min preincubation; 5Fam-KLTRAETV-K5Tamra substrate; read-out: FXIa (KIN) IC50
Sequence of Factor XIa (P03951 388-625 limits assumed): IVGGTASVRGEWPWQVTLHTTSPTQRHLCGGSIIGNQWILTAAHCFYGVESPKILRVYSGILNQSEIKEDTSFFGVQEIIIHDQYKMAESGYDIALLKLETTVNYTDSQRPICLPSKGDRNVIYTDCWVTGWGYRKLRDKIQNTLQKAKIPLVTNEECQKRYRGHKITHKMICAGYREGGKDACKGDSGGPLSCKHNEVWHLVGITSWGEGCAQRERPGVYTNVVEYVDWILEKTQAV
Sequence of Factor XIa (P03951 19-387 partner limits assumed): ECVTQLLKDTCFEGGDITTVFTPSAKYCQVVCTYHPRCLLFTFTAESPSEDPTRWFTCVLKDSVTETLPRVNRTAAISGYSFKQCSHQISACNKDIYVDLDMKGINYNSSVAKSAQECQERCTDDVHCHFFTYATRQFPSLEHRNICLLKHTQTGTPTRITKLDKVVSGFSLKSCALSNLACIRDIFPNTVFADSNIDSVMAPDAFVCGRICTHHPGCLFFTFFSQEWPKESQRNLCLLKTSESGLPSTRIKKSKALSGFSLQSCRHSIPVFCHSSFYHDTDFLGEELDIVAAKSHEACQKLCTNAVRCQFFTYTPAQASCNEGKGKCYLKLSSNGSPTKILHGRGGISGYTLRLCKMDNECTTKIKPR
From the text: Biological Example 1: Factor XIa Inhibition Assay Utilizing a Fluorophore-Quencher Pair Peptide Substrate
A fluorescence intensity (FLINT) based assay was used to monitor inhibition of Factor XIa. The peptide substrate, 5Fam-KLTRAETV-K5Tamra (purchased from New England Peptide) was chosen based on the […]. Conversion of zymogen […]. The custom peptide used in this assay was based on the Arg146 cleavage site of FXI. The peptide substrate was designed with a fluorophore-quencher pair, where the fluorescence is quenched until FXIa cleaves the 8-mer peptide after the Arg residue. The substrate KM was fit to a substrate inhibition model whereby kcat=0.86 s^−1, KM=12.4 μM, Ki=61.6 μM with an enzymatic efficiency, and kcat/KM=69523 M^−1s^−1.
The Factor XIa FLINT assay was used with the following 5Fam-KLTRAETV-K5Tamra assay buffer: 50 mM Tris, pH 7.5, 100 mM NaCl, 5 mM CaCl2, 0.1 mg/mL BSA, 0.03% CHAPS. Assay buffer was prepared by mixing all ingredients fresh. 5Fam-KLTRAETV-K5Tamra peptide substrate was first prepared at 10 mM in 100% DMSO, then diluted to 3 mM in 100% DMSO. Assay buffer was then added directly to the 3 mM stock of substrate to prepare the 30 μM 2× working concentration (15 μM final concentration). The 2× Factor XIa stock solution was prepared by diluting 6.562 μM stock in 1× assay buffer for a 200 pM working stock solution (100 pM final concentration).
Test compound(s) were run in an 11-point, 3-fold serial dilution with a final top compound concentration of 100 nM. Final DMSO in assay was 2%. FXIa was preincubated with compound for 30-minutes and then substrate was added to initiate the reaction. The assay was run with either end point (EP) reads at 30 min or kinetic (KIN) reads at 5 min intervals over 30 minutes. The time course was linear using 100 μM FXIa greater than 30 minutes. More specifically, the assay was run as follows: • 100 nL of 0.01 mM test compound was dispensed into black 384-well non-binding Greiner BioOne 784900 plate for 0.1 μM final concentration; • 5 μL of 1× assay buffer was dispensed to column 24 (low control) and 5 μL 2× Factor XIa solution was dispensed to columns 1-23 (column 23 high control); • the plate was centrifuged with a “cover” plate at 500 rpm for 1 min the plate was pre-incubated for 30 minutes at room temperature with plate covered; • 5 μL of 2× 5Fam-KLTRAETV-K5Tamra peptide substrate was dispensed into the entire plate, columns 1-24; • the plate was centrifuged with a “cover” plate at 500 rpm for 1 min; • the plate was read monitoring fluorescence intensity on the BMG PHERAStar at room temperature, using fluorescence module 485 nm/520 nm.
Percent inhibition (IC50) curves were generated per compound tested, and data was analyzed using a 4-parameter logistic fit using GeneData Screener. The relative fluorescence unit (RFU) values were normalized to percent inhibition using the following equation: % inhibition=((HC−LC)−(compound−LC)/(HC−LC))*100 where LC—low control=mean signal of no Factor XIa or 100% inhibition of Factor XIa; HC—high control=mean signal of Factor XIa+5Fam-KLTRAETV-K5Tamra peptide substrate with DMSO only.
as §1
as §2, with “Factor XIa+5Fam-KLTRAETV-K5Tamra” for “human kallikrein enzyme+Z-Gly-Pro-Arg-AMC”, “Factor XIa” for “human kallikrein enzyme”, “Factor XIa;” for “human kallikrein enzyme;”, “control. […]” for “control.”

| IC50 (human plasma kallikrein) [nM] | IC50 (Factor XIa) [nM] | SMILES |
| --- | --- | --- |
| 6360 | 1170 | Cn1ncc(-c2cnn(C3CCc4cc(-c5c(-n6cnnn6)ccc(Cl)c5F)c[n+]([O-])c43)c2)cc1=O (racemic) [ID No. 19, 3-(3-Chloro-2-fluoro-6-(1H-tetrazol-1-yl)phenyl)-7-(4-(1-methyl-6-oxo-1,6-dihydropyridazin-4-yl)-1H-pyrazol-1-yl)-6,7-dihydro-5H-cyclopenta[b]pyridine 1-oxide] |
| 176 | 3 | Nc1ccc(-c2cnn(C3CCc4cc(-c5c(-n6cnnn6)ccc(Cl)c5F)c[n+]([O-])c43)c2)c(Cl)n1 (single isomer, unassigned) [ID No. 22, (S*)-7-(4-(6-Amino-2-chloropyridin-3-yl)-1H-pyrazol-1-yl)-3-(3-chloro-2-fluoro-6-(1H-tetrazol-1-yl)phenyl)-6,7-dihydro-5H-cyclopenta[b]pyridine 1-oxide] |
| 461 | 24 | COC(=O)Nc1ccc(-c2cn(C3CCc4cc(-c5c(-n6cnnn6)ccc(Cl)c5F)c[n+]([O-])c43)cn2)cc1 (stereo not shown) [ID No. 2, 3-(3-Chloro-2-fluoro-6-(1H-tetrazol-1-yl)phenyl)-7-(4-(4-((methoxycarbonyl)amino)phenyl)-1H-imidazol-1-yl)-6,7-dihydro-5H-cyclopenta[b]pyridine 1-oxide] |
| 70 | 40 | [O-][n+]1cc(-c2c(-n3cnnn3)ccc(Cl)c2F)cc2c1C(n1cc(-c3ccnc(C4CC4)c3)cn1)CC2 (racemic) [ID No. 24, 3-(3-Chloro-2-fluoro-6-(1H-tetrazol-1-yl)phenyl)-7-(4-(2-cyclopropylpyridin-4-yl)-1H-pyrazol-1-yl)-6,7-dihydro-5H-cyclopenta[b]pyridine 1-oxide] |
| 393 | 32 | Cc1cc(-c2cnn(C3CCc4cc(-c5c(-n6cnnn6)ccc(Cl)c5F)c[n+]([O-])c43)c2)ccn1 (racemic) [ID No. 23, 3-(3-Chloro-2-fluoro-6-(1H-tetrazol-1-yl)phenyl)-7-(4-(2-methylpyridin-4-yl)-1H-pyrazol-1-yl)-6,7-dihydro-5H-cyclopenta[b]pyridine 1-oxide] |
| 1090 | 282 | O=C(NC1CC1)c1ccc(-c2cnn(C3CCc4cc(-c5c(-n6cnnn6)ccc(Cl)c5F)c[n+]([O-])c43)c2)cc1 (racemic) [ID No. 18, 3-(3-Chloro-2-fluoro-6-(1H-tetrazol-1-yl)phenyl)-7-(4-(4-(cyclopropylcarbamoyl)phenyl)-1H-pyrazol-1-yl)-6,7-dihydro-5H-cyclopenta[b]pyridine 1-oxide] |
| 316 | 25 | O=C(Nc1ccc(-c2cnn(C3CCc4cc(-c5c(-n6cnnn6)ccc(Cl)c5F)c[n+]([O-])c43)c2)cc1)C1CC1 (racemic) [ID No. 16, 3-(3-Chloro-2-fluoro-6-(1H-tetrazol-1-yl)phenyl)-7-(4-(4-(cyclopropanecarboxamido)phenyl)-1H-pyrazol-1-yl)-6,7-dihydro-5H-cyclopenta[b]pyridine 1-oxide] |
| 987 | 40 | Nc1ccc(-c2cnn(C3CCCc4cc(-c5c(-n6cnnn6)ccc(Cl)c5F)c[n+]([O-])c43)c2)c(F)n1 (single isomer, unassigned) [ID No. 31, (R*)-8-(4-(6-Amino-2-fluoropyridin-3-yl)-1H-pyrazol-1-yl)-3-(3-chloro-2-fluoro-6-(1H-tetrazol-1-yl)phenyl)-5,6,7,8-tetrahydroquinoline 1-oxide] |
| 67 | 37 | NC(=O)c1ccc(-c2cnn(C3CCc4cc(-c5c(-n6cc(C(F)(F)F)nn6)ccc(Cl)c5F)c[n+]([O-])c43)c2)cc1F (single isomer, unassigned) [ID No. 28, (S*)-7-(4-(4-Carbamoyl-3-fluorophenyl)-1H-pyrazol-1-yl)-3-(3-chloro-2-fluoro-6-(4-(trifluoromethyl)-1H-1,2,3-triazol-1-yl)phenyl)-6,7-dihydro-5H-cyclopenta[b]pyridine 1-oxide] |
| > 10000 | 2380 | Nc1ccc(-c2cnn(C3CCc4cc(-c5c(-n6cnnn6)ccc(Cl)c5F)c[n+]([O-])c43)c2)c(Cl)n1 (single isomer, unassigned) [ID No. 21, (R*)-7-(4-(6-Amino-2-chloropyridin-3-yl)-1H-pyrazol-1-yl)-3-(3-chloro-2-fluoro-6-(1H-tetrazol-1-yl)phenyl)-6,7-dihydro-5H-cyclopenta[b]pyridine 1-oxide] |
| > 10000 | > 10000 | Nc1ccc(-c2cnn(C3CCCc4cc(-c5c(-n6cnnn6)ccc(Cl)c5F)c[n+]([O-])c43)c2)c(F)n1 (single isomer, unassigned) [ID No. 32, (S*)-8-(4-(6-Amino-2-fluoropyridin-3-yl)-1H-pyrazol-1-yl)-3-(3-chloro-2-fluoro-6-(1H-tetrazol-1-yl)phenyl)-5,6,7,8-tetrahydroquinoline 1-oxide] |
